Measured values as given in PubChem BioAssay (NCI).
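In this assay, cells in 96-well plates receive the compound at five concentrations for 48 hours. Endpoints are linearly interpolated between the surrounding concentrations. The concentration for full growth arrest is given as TGI.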 Where a SMILES comes first, the peptide text is derived from it. Bridges are numbered along the chain shown (N, C = ends). [ ]: non-standard residue; d: D form. The star is where a group is joined. Cbz = O=C(OCc1ccccc1)*; Dab = NCC[CH](N)C(=O)O; Bn = c1ccc(C*)cc1

Key:
Experiment in all cases: NCI-60 cell line screen, 48 h
786-0 renal = system: 786-0 renal
A498 renal = system: A498 renal
A549 NSCLC = system: A549 NSCLC
ACHN renal = system: ACHN renal
BT-549 breast = system: BT-549 breast
CAKI-1 renal = system: CAKI-1 renal
CCRF-CEM leukemia = system: CCRF-CEM leukemia
EKVX NSCLC = system: EKVX NSCLC
HCC-2998 colon = system: HCC-2998 colon
HCT-15 colon = system: HCT-15 colon
HL-60(TB) leukemia = system: HL-60(TB) leukemia
HOP-92 NSCLC = system: HOP-92 NSCLC
HS 578T breast = system: HS 578T breast
HT29 colon = system: HT29 colon
IGROV1 ovarian = system: IGROV1 ovarian
K-562 leukemia = system: K-562 leukemia
KM12 colon = system: KM12 colon
LOX IMVI melanoma = system: LOX IMVI melanoma
M14 melanoma = system: M14 melanoma
MCF7 breast = system: MCF7 breast
MOLT-4 leukemia = system: MOLT-4 leukemia
NCI-H226 lung = system: NCI-H226 lung
NCI-H23 lung = system: NCI-H23 lung
NCI-H460 lung = system: NCI-H460 lung
NCI/ADR-RES ovarian = system: NCI/ADR-RES ovarian
OVCAR-3 ovarian = system: OVCAR-3 ovarian
OVCAR-4 ovarian = system: OVCAR-4 ovarian
OVCAR-5 ovarian = system: OVCAR-5 ovarian
OVCAR-8 ovarian = system: OVCAR-8 ovarian
PC-3 prostate = system: PC-3 prostate
RPMI-8226 leukemia = system: RPMI-8226 leukemia
RXF 393 renal = system: RXF 393 renal
SF-268 CNS = system: SF-268 CNS
SF-539 CNS = system: SF-539 CNS
SK-MEL-28 melanoma = system: SK-MEL-28 melanoma
SK-MEL-5 melanoma = system: SK-MEL-5 melanoma
SK-OV-3 ovarian = system: SK-OV-3 ovarian
SN12C renal = system: SN12C renal
SNB-19 CNS = system: SNB-19 CNS
SNB-75 CNS = system: SNB-75 CNS
SR leukemia = system: SR leukemia
SW-620 colon = system: SW-620 colon
TK-10 renal = system: TK-10 renal
U251 CNS = system: U251 CNS
UACC-62 melanoma = system: UACC-62 melanoma
UO-31 renal = system: UO-31 renal
UACC-257 melanoma = system: UACC-257 melanoma

## O=C1CCCC2=C1CC1=C(CCCC1=O)N2c1ccccc1C(=O)O
786-0 renal
  TGI: > 100 µM
A498 renal
  TGI: > 100 µM
A549 NSCLC
  TGI: > 100 µM
ACHN renal
  TGI: > 100 µM
BT-549 breast
  TGI: > 100 µM
CAKI-1 renal
  TGI: > 100 µM
CCRF-CEM leukemia
  TGI: > 100 µM
EKVX NSCLC
  TGI: > 100 µM
HCC-2998 colon
  TGI: > 100 µM
HCT-15 colon
  TGI: > 100 µM
HL-60(TB) leukemia
  TGI: > 100 µM
HOP-92 NSCLC
  TGI: > 100 µM
HS 578T breast
  TGI: > 100 µM
HT29 colon
  TGI: > 100 µM
IGROV1 ovarian
  TGI: > 100 µM
K-562 leukemia
  TGI: > 100 µM
KM12 colon
  TGI: > 100 µM
LOX IMVI melanoma
  TGI: > 100 µM
M14 melanoma
  TGI: > 100 µM
MCF7 breast
  TGI: > 100 µM
MOLT-4 leukemia
  TGI: > 100 µM
NCI-H226 lung
  TGI: > 100 µM
NCI-H23 lung
  TGI: > 100 µM
NCI-H460 lung
  TGI: > 100 µM
NCI/ADR-RES ovarian
  TGI: > 100 µM
OVCAR-3 ovarian
  TGI: > 100 µM
OVCAR-4 ovarian
  TGI: > 100 µM
OVCAR-5 ovarian
  TGI: > 100 µM
OVCAR-8 ovarian
  TGI: > 100 µM
PC-3 prostate
  TGI: > 100 µM
RPMI-8226 leukemia
  TGI: > 100 µM
RXF 393 renal
  TGI: > 100 µM
SF-268 CNS
  TGI: > 100 µM
SF-539 CNS
  TGI: > 100 µM
SK-MEL-28 melanoma
  TGI: > 100 µM
SK-MEL-5 melanoma
  TGI: > 100 µM
SK-OV-3 ovarian
  TGI: > 100 µM
SN12C renal
  TGI: > 100 µM
SNB-19 CNS
  TGI: > 100 µM
SNB-75 CNS
  TGI: > 100 µM
SR leukemia
  TGI: > 100 µM
SW-620 colon
  TGI: > 100 µM
TK-10 renal
  TGI: > 100 µM
U251 CNS
  TGI: > 100 µM
UACC-62 melanoma
  TGI: > 100 µM
UO-31 renal
  TGI: > 100 µM

## CC(C)CC1NC(=O)C(Cc2ccccc2)NC(=O)C(Cc2ccccc2)NC(=O)C(NC(=O)C(Cc2ccc(OCc3ccccc3)cc2)NC(=O)OCc2ccccc2)CCNC1=O (stereo not given) (Cbz-Y(Bn)[Dab]FFL; lactam 2-C; configuration not given here)
HOP-92 NSCLC
  TGI: > 100 µM
NCI-H226 lung
  TGI: > 100 µM
NCI-H23 lung
  TGI: > 100 µM
UACC-257 melanoma
  TGI: 84.7 µM
